Results published in US9708314B2, “Heterocyclic amide compound” (NISSAN CHEMICAL INDUSTRIES, LTD., priority 2013, dated 2017).

Tests used:
Assay type in all cases: in vivo
[1] = tested on: Echinochloa crus-galli var. crus-galli; assay: Test Example 3: herbicidal effect by application to foliage (Wagner pot, water depth 0.1-0.5 cm); settings: Nineteenth Table; application to foliage; application herbicide amount 320 g/ha
Description: (§1) 5 Herbicidal ratio of 90% or more (almost completely withered) 4 Herbicidal ratio of 70% or more and less than 90% 3 Herbicidal ratio of 40% or more and less than 70% 2 Herbicidal ratio of 20% or more and less than 40% 1 Herbicidal ratio of 5% or more and less than 20% 0 Herbicidal ratio of 5% or less (almost no effect) [Test Example 3] Herbicidal Effect Test by Application to Foliage After alluvial soil was placed into 1/10000 are of Wagner pot, water was poured and mixed to form a condition having a water depth of 0.1 cm to 0.5 cm. Seeds of Echinochloa crus-galli var. crus-galli, Leptochloa chinensis, Cyperus difformis, and Oryza sativa were sowed and the pot was placed in the greenhouse of 25° C. to 30° C. to grow the plants. After the plants were grown for 14 days, the emulsion agent containing the compound of the present invention prepared in accordance with Formulation Example 2 was diluted with water so as to be a predetermined herbicide amount and the diluted compound was uniformly applied to a stem and leaf part with a small-size spray. Three weeks after the herbicide application, effects on each plant were investigated in accordance with the criteria of Test Example 1. A: Echinochloa oryzicola Vasing., B: Scirpus juncoides, C: Monochoria vaginalis, D: Leptochloa chinensis, E: Cyperus difformis, F: Digitaria ciliaris, G: Setaria viridis, H: Echinochloa crus-galli var. crus-galli, I: Avena fatua, J: Alopecurus myosuroides, K: Lolium multiflorum Lam., L: Apera spica-venti., M: Abutilon theophrasti, N: Amaranthus retroflexus, O: Chenopodium album, P: Stellaria media, Q: Galium spurium, R: Veronica persica, a: transplanted Oryza sativa, b: directly sowed Oryza sativa, c: Zea mays, d: Glycine max, e: Triticum aestivum, f: Beta vulgaris ssp. vulgaris, and g: Brassica campestris L. The application herbicide amount (g/ha) means an amount that a concentration is adjusted so that, when an application amount is converted into per hectare (1 ha), the herbicide is applied by the number of grams (g) of the described value.

Cyperus difformis = assay: as above; settings: Nineteenth Table; application to foliage; application herbicide amount 320 g/ha
Description: as §1

Leptochloa chinensis = assay: as above; settings: Nineteenth Table; application to foliage; application herbicide amount 320 g/ha
Description: as §1

Glycine max = assay: Test Example 4: effect on crop by application to foliage (diluvial soil, plastic box); settings: Application herbicide amount 320 g/ha; effect on crop
Description: (§2) 5 Herbicidal ratio of 90% or more (almost completely withered) 4 Herbicidal ratio of 70% or more and less than 90% 3 Herbicidal ratio of 40% or more and less than 70% 2 Herbicidal ratio of 20% or more and less than 40% 1 Herbicidal ratio of 5% or more and less than 20% 0 Herbicidal ratio of 5% or less (almost no effect) [Test Example 4] Herbicidal Effect Test by Application to Foliage Sterilized diluvial soil was placed in a plastic box having a length of 21 cm, a width of 13 cm, and a depth of 7 cm. Each of the seeds of Digitaria ciliaris, Setaria viridis, Echinochloa crus-galli var. crus-galli, Avena fatua, Alopecurus myosuroides, Lolium multiflorum Lam., Apera spica-venti., Abutilon theophrasti, Amaranthus retroflexus, Chenopodium album, Stellaria media, Galium spurium, Veronica persica, Zea mays, Glycine max, Oryza sativa, Triticum aestivum, Beta vulgaris ssp. vulgaris, and Brassica campestris L. was sowed in a spot-like manner and was covered with the soil of about 1.5 cm thick. Thereafter, the plants were grown in the greenhouse of 25° C. to 30° C. After the plants were grown for 14 days, the emulsion agent containing the compound of the present invention prepared in accordance with Formulation Example 2 was diluted with water so as to be a predetermined herbicide amount and the diluted compound was uniformly applied to a stem and leaf part with a small-size spray. Three weeks after the herbicide application, effects on each plant were investigated in accordance with the criteria of Test Example 1. A: Echinochloa oryzicola Vasing., B: Scirpus juncoides, C: Monochoria vaginalis, D: Leptochloa chinensis, E: Cyperus difformis, F: Digitaria ciliaris, G: Setaria viridis, H: Echinochloa crus-galli var. crus-galli, I: Avena fatua, J: Alopecurus myosuroides, K: Lolium multiflorum Lam., L: Apera spica-venti., M: Abutilon theophrasti, N: Amaranthus retroflexus, O: Chenopodium album, P: Stellaria media, Q: Galium spurium, R: Veronica persica, a: transplanted Oryza sativa, b: directly sowed Oryza sativa, c: Zea mays, d: Glycine max, e: Triticum aestivum, f: Beta vulgaris ssp. vulgaris, and g: Brassica campestris L. The application herbicide amount (g/ha) means an amount that a concentration is adjusted so that, when an application amount is converted into per hectare (1 ha), the herbicide is applied by the number of grams (g) of the described value.

[2] = tested on: directly sowed Oryza sativa; assay: as above; settings: Application herbicide amount 320 g/ha; effect on crop
Description: as §2

[3] = tested on: Beta vulgaris ssp. vulgaris; assay: as above; settings: Application herbicide amount 320 g/ha; effect on crop
Description: as §2

Zea mays = assay: as above; settings: Application herbicide amount 320 g/ha; effect on crop
Description: as §2

Triticum aestivum = assay: as above; settings: Application herbicide amount 320 g/ha; effect on crop
Description: as §2

Brassica campestris L. = assay: as above; settings: Application herbicide amount 320 g/ha; effect on crop
Description: as §2

[4] = tested on: directly sowed Oryza sativa; assay: Test Example 3: effect on crop by application to foliage (Wagner pot, water depth 0.1-0.5 cm); settings: Nineteenth Table; application to foliage; application herbicide amount 320 g/ha
Description: as §1

[5] = tested on: Echinochloa crus-galli var. crus-galli; assay: Test Example 4: herbicidal effect by application to foliage (diluvial soil, plastic box); settings: Application herbicide amount 320 g/ha
Description: as §2

Chenopodium album = assay: as above; settings: Application herbicide amount 320 g/ha
Description: as §2

Alopecurus myosuroides = assay: as above; settings: Application herbicide amount 320 g/ha
Description: as §2

Abutilon theophrasti = assay: as above; settings: Application herbicide amount 320 g/ha
Description: as §2

Digitaria ciliaris = assay: as above; settings: Application herbicide amount 320 g/ha
Description: as §2

Galium spurium = assay: as above; settings: Application herbicide amount 320 g/ha
Description: as §2

Veronica persica = assay: as above; settings: Application herbicide amount 320 g/ha
Description: as §2

Lolium multiflorum Lam. = assay: as above; settings: Application herbicide amount 320 g/ha
Description: as §2

Setaria viridis = assay: as above; settings: Application herbicide amount 320 g/ha
Description: as §2

Avena fatua = assay: as above; settings: Application herbicide amount 320 g/ha
Description: as §2

Apera spica-venti. = assay: as above; settings: Application herbicide amount 320 g/ha
Description: as §2

Row | Structure (SMILES) | H (herbicidal effect grade) [1] | E (herbicidal effect grade) (Cyperus difformis) | D (herbicidal effect grade) (Leptochloa chinensis) | c (Glycine max) | d [2] | f [3] | b (Zea mays) | e (Triticum aestivum) | g (Brassica campestris L.) | b (effect on crop grade) [4] | H [5] | O (Chenopodium album) | J (Alopecurus myosuroides) | M (Abutilon theophrasti) | F (Digitaria ciliaris) | R (Veronica persica) | K (Lolium multiflorum Lam.) | G (Setaria viridis) | I (Avena fatua) | L (Apera spica-venti.) | also measured
1 | CON=Cc1nnc2c(C(=O)Nc3nnc(C)o3)ccc(C(F)(F)F)n12 [1-072] | 2 (Herbicidal ratio of 20% or more and less than 40%) | 0 (Herbicidal ratio of 5% or less (almost no effect)) | 1 (Herbicidal ratio of 5% or more and less than 20%) | 0 (Herbicidal ratio of 5% or less (almost no effect)) | 0 (Herbicidal ratio of 5% or less (almost no effect)) | 0 (Herbicidal ratio of 5% or less (almost no effect)) | 0 (Herbicidal ratio of 5% or less (almost no effect)) | 0 (Herbicidal ratio of 5% or less (almost no effect)) | 0 (Herbicidal ratio of 5% or less (almost no effect)) | 0 (Herbicidal ratio of 5% or less (almost no effect)) | 3 (Herbicidal ratio of 40% or more and less than 70%) | 4 (Herbicidal ratio of 70% or more and less than 90%) | 0 (Herbicidal ratio of 5% or less (almost no effect)) | 1 (Herbicidal ratio of 5% or more and less than 20%) | 0 (Herbicidal ratio of 5% or less (almost no effect)) | 1 (Herbicidal ratio of 5% or more and less than 20%) | 0 (Herbicidal ratio of 5% or less (almost no effect)) | 0 (Herbicidal ratio of 5% or less (almost no effect)) | 0 (Herbicidal ratio of 5% or less (almost no effect)) | 0 (Herbicidal ratio of 5% or less (almost no effect)) | Q (Galium spurium): 0 (Herbicidal ratio of 5% or less (almost no effect))
2 | Cc1nnc(NC(=O)c2ccc(-c3ccccc3)n3c(C(C)C)nnc23)o1 [1-081] | 2 (Herbicidal ratio of 20% or more and less than 40%) | 0 (Herbicidal ratio of 5% or less (almost no effect)) | 0 (Herbicidal ratio of 5% or less (almost no effect)) | 0 (Herbicidal ratio of 5% or less (almost no effect)) | 0 (Herbicidal ratio of 5% or less (almost no effect)) | 1 (Herbicidal ratio of 5% or more and less than 20%) | 0 (Herbicidal ratio of 5% or less (almost no effect)) | 0 (Herbicidal ratio of 5% or less (almost no effect)) | 0 (Herbicidal ratio of 5% or less (almost no effect)) | 0 (Herbicidal ratio of 5% or less (almost no effect)) | 0 (Herbicidal ratio of 5% or less (almost no effect)) | 4 (Herbicidal ratio of 70% or more and less than 90%) | 0 (Herbicidal ratio of 5% or less (almost no effect)) | 0 (Herbicidal ratio of 5% or less (almost no effect)) | 0 (Herbicidal ratio of 5% or less (almost no effect)) | 0 (Herbicidal ratio of 5% or less (almost no effect)) | 0 (Herbicidal ratio of 5% or less (almost no effect)) | 0 (Herbicidal ratio of 5% or less (almost no effect)) | 0 (Herbicidal ratio of 5% or less (almost no effect)) | 0 (Herbicidal ratio of 5% or less (almost no effect)) | 
3 | Cc1nnc(NC(=O)c2ccc(-c3cc(F)cc(F)c3)n3c(C(C)C)nnc23)o1 [1-088] |  |  |  | 0 (Herbicidal ratio of 5% or less (almost no effect)) | 0 (Herbicidal ratio of 5% or less (almost no effect)) | 0 (Herbicidal ratio of 5% or less (almost no effect)) | 0 (Herbicidal ratio of 5% or less (almost no effect)) | 0 (Herbicidal ratio of 5% or less (almost no effect)) | 0 (Herbicidal ratio of 5% or less (almost no effect)) |  | 0 (Herbicidal ratio of 5% or less (almost no effect)) | 2 (Herbicidal ratio of 20% or more and less than 40%) | 0 (Herbicidal ratio of 5% or less (almost no effect)) | 0 (Herbicidal ratio of 5% or less (almost no effect)) | 0 (Herbicidal ratio of 5% or less (almost no effect)) | 0 (Herbicidal ratio of 5% or less (almost no effect)) | 0 (Herbicidal ratio of 5% or less (almost no effect)) | 0 (Herbicidal ratio of 5% or less (almost no effect)) | 0 (Herbicidal ratio of 5% or less (almost no effect)) | 0 (Herbicidal ratio of 5% or less (almost no effect)) | Q (Galium spurium): 0 (Herbicidal ratio of 5% or less (almost no effect))
4 | CC(C)c1nnc2c(C(=O)Nc3nnc(-c4ccccn4)o3)ccc(C(F)(F)F)n12 [1-101] | 1 (Herbicidal ratio of 5% or more and less than 20%) | 0 (Herbicidal ratio of 5% or less (almost no effect)) | 0 (Herbicidal ratio of 5% or less (almost no effect)) |  |  |  |  |  |  | 0 (Herbicidal ratio of 5% or less (almost no effect)) |  |  |  |  |  |  |  |  |  |  | 
5 | Cc1nnc(NC(=O)c2ccc(C(F)(F)F)n3c(C(C)C)nnc23)n1C [5-001] | 1 (Herbicidal ratio of 5% or more and less than 20%) | 0 (Herbicidal ratio of 5% or less (almost no effect)) | 0 (Herbicidal ratio of 5% or less (almost no effect)) |  |  |  |  |  |  | 0 (Herbicidal ratio of 5% or less (almost no effect)) |  |  |  |  |  |  |  |  |  |  | 
